Where a name gives a salt, the structure may show the parent alone.
The compounds below were run on NF-κB (assay: NF-κB luciferase reporter assay in A549/NF-κBLuc cells stimulated with IL-1β). Details: A549/NF-κBLuc cells; compound added 1 hour before IL-1β, then 3 hours incubation; luciferase activity; read-out: NF-κB Inhibitory Activity (IC50).
Assay type: cell-based, human
Description: Effect on Human Lung Cancer-Derived Cell A549 (A549/NF-κBluc) Containing Stably Introduced Luciferase Plasmid (pNFκB-Luc, Stratagene. U.S.A.) Regulated by NF-κB Binding Sequence
Using Lipofectamine (Lifetech Oriental, Tokyo), pNFκB-Luc and pSV2neo (Clontech, U.S.A.) were co-transfected into the A549 cell (ATCC CCL185) and G418 sulfate (1 mg/ml, Lifetech Oriental) was added to the culture medium to select cells containing stably introduced pNFκB-Luc A549/NF-κBLuc.
The compound obtained in Examples each was added to A549/NF-κBLuc and one hour after that, IL-1β capable of activating NF-κB was added. The incubation was further continued for 3 hours.
NF-κB Inhibitory Activity (IC50) of Substituted Benzoic Acid Derivitives: […]

IC50 | SMILES
46 µM | COC1=C(OC)C(=O)C(Cc2ccc(OCc3cccnc3)c(C(=O)N3CCCCC3)c2)=C(C)C1=O [Example 92 (HCl)]
51 µM | COC1=C(OC)C(=O)C(Cc2ccc(OCc3ccncc3)c(C(=O)N3CCCCC3)c2)=C(C)C1=O [Example 95 (pTsOH)]

Same assay, conditions: Homo sapiens, A549, A549/NF-κBLuc cells; compound added 1 hour before IL-1β, then 3 hours incubation; luciferase activity; read-out: NF-κB Inhibitory Activity (IC50)

SMILES | IC50
COC1=C(OC)C(=O)C(Cc2ccc(C(=O)N3CCCCC3)c(OCc3ccccc3)c2)=C(C)C1=O [Example 57, N-[4-(5,6-Dimethoxy-3-methyl-1,4-benzoquinon-2-yl)methyl-2-benzyloxybenzoyl]piperidine] | 29 µM
COC1=C(OC)C(=O)C(Cc2ccc(OCc3ccccc3)c(C(=O)N3CCCCC3)c2)=C(C)C1=O [Example 61, N-[5-(5,6-Dimethoxy-3-methyl-1,4-benzoquinon-2-yl)methyl-2-benzyloxybenzoyl]piperidine] | 31 µM
COC1=C(OC)C(=O)C(Cc2cccc(C(=O)N3CCCCC3)c2OCc2ccccc2)=C(C)C1=O [Example 64, N-[3-(5,6-Dimethoxy-3-methyl-1,4-benzoquinon-2-yl)methyl-2-benzyloxybenzoyl]piperidine] | 33 µM
COC1=C(OC)C(=O)C(Cc2cccc(C(=O)N3CCOCC3)c2OCc2ccccc2)=C(C)C1=O [Example 65, N-[3-(5,6-Dimethoxy-3-methyl-1,4-benzoquinon-2-yl)methyl-2-benzyloxybenzoyl]morpholine] | 37 µM
COC1=C(OC)C(=O)C(Cc2ccc(OC(C)=O)c(C(=O)Nc3ccc(OC)cc3)c2)=C(C)C1=O [Example 70, N-[5-(5,6-Dimethoxy-3-methyl-1,4-benzoquinon-2-yl)methyl-2-acetoxybenzoyl]-4-methoxyaniline] | 15 µM
COC1=C(OC)C(=O)C(Cc2cccc(C(=O)N3CCCCC3)c2OC(C)=O)=C(C)C1=O [Example 71, N-[3-(5,6-Dimethoxy-3-methyl-1,4-benzoquinon-2-yl)methyl-2-acetoxybenzoyl]piperidine] | 36 µM
COC1=C(OC)C(=O)C(Cc2cccc(C(=O)N3CCOCC3)c2OC(C)=O)=C(C)C1=O [Example 72, N-[3-(5,6-Dimethoxy-3-methyl-1,4-benzoquinon-2-yl)methyl-2-acetoxybenzoyl]morpholine] | 43 µM
COC1=C(OC)C(=O)C(Cc2cccc(C(=O)Nc3ccc(OC)cc3)c2OC(C)=O)=C(C)C1=O [Example 73, N-[3-(5,6-Dimethoxy-3-methyl-1,4-benzoquinon-2-yl)methyl-2-acetoxybenzoyl]-4-methoxyaniline] | 31 µM
COC1=C(OC)C(=O)C(Cc2cccc(C(=O)N3CCCCC3)c2O)=C(C)C1=O [Example 77, N-[3-(5,6-Dimethoxy-3-methyl-1,4-benzoquinon-2-yl)methyl-2-hydroxybenzoyl]piperidine] | 35 µM
COC1=C(OC)C(=O)C(Cc2cccc(C(=O)N3CCOCC3)c2O)=C(C)C1=O [Example 78, N-[3-(5,6-Dimethoxy-3-methyl-1,4-benzoquinon-2-yl)methyl-2-hydroxybenzoyl]morpholine] | 57 µM
COC1=C(OC)C(=O)C(Cc2ccc(OCc3cccnc3)c(C(=O)N3CCCCC3)c2)=C(C)C1=O [Example 92, N-[5-(5,6-Dimethoxy-3-methyl-1,4-benzoquinon-2-yl)methyl-2-(3-pyridylmethyloxy)benzoyl]piperidine] | 49 µM
COC1=C(OC)C(=O)C(Cc2ccc(OCC(=O)OC(C)(C)C)c(C(=O)N3CCCCC3)c2)=C(C)C1=O [Example 104, N-[5-(5,6-Dimethoxy-3-methyl-1,4-benzoquinon-2-yl)methyl-2-(tert-butoxycarbonylmethyloxy)benzoyl]piperidine] | 29 µM
COC1=C(OC)C(=O)C(Cc2ccc(OC(C)=O)c(C(=O)Nc3cc(OC)c(OC)c(OC)c3)c2)=C(C)C1=O [Example 106, N-[5-(5,6-Dimethoxy-3-methyl-1,4-benzoquinon-2-yl)methyl-2-acetoxybenzoyl]-3,4,5-trimethoxyaniline] | 70 µM
COC1=C(OC)C(=O)C(Cc2ccc(OC(C)=O)c(C(=O)Nc3ccc(OC)c(OC)c3)c2)=C(C)C1=O [Example 107, N-[5-(5,6-Dimethoxy-3-methyl-1,4-benzoquinon-2-yl)methyl-2-acetoxybenzoyl]-3,4-dimethoxyaniline] | 84 µM
COC1=C(OC)C(=O)C(Cc2ccc(OC(C)=O)c(C(=O)Nc3ccc(C(C)=O)cc3)c2)=C(C)C1=O [Example 108, N-[5-(5,6-Dimethoxy-3-methyl-1,4-benzoquinon-2-yl)methyl-2-acetoxybenzoyl]-4-acetylaniline] | 67 µM
COC1=C(OC)C(=O)C(Cc2ccc(OC(C)=O)c(C(=O)Nc3ccc(Cl)cc3)c2)=C(C)C1=O [Example 109, N-[5-(5,6-Dimethoxy-3-methyl-1,4-benzoquinon-2-yl)methyl-2-acetoxybenzoyl]-4-chloroaniline] | 46 µM
COC1=C(OC)C(=O)C(Cc2ccc(OC(C)=O)c(C(=O)Nc3ccc(N4CCOCC4)cc3)c2)=C(C)C1=O [Example 110, N-[5-(5,6-Dimethoxy-3-methyl-1,4-benzoquinon-2-yl)methyl-2-acetoxybenzoyl]-4-morpholinoaniline] | 34 µM
COC1=C(OC)C(=O)C(Cc2ccc(OC(C)=O)c(C(=O)Nc3ccc(C#N)cc3)c2)=C(C)C1=O [Example 111, N-[5-(5,6-Dimethoxy-3-methyl-1,4-benzoquinon-2-yl)methyl-2-acetoxybenzoyl]-4-cyanoaniline] | 25 µM

The remaining lines, values ahead:

IC50 | SMILES
19 µM | COC1=C(OC)C(=O)C(Cc2cccc(OCc3ccccc3)c2C(=O)Nc2ccc(OC)cc2)=C(C)C1=O [Example 60, N-[6-(5,6-Dimethoxy-3-methyl-1,4-benzoquinon-2-yl)methyl-2-benzyloxybenzoyl]-4-methoxyaniline]
7 µM | COC1=C(OC)C(=O)C(Cc2ccc(O)c(C(=O)Nc3ccc(OC)cc3)c2)=C(C)C1=O [Example 76, N-[5-(5,6-Dimethoxy-3-methyl-1,4-benzoquinon-2-yl)methyl-2-hydroxybenzoyl]-4-methoxyaniline]
27 µM | COC1=C(OC)C(=O)C(Cc2cccc(C(=O)Nc3ccc(OC)cc3)c2O)=C(C)C1=O [Example 79, N-[3-(5,6-Dimethoxy-3-methyl-1,4-benzoquinon-2-yl)methyl-2-hydroxybenzoyl]-4-methoxyaniline]
82 µM | COC1=C(OC)C(=O)C(Cc2ccc(OC)c(C(=O)N3CCCCC3)c2)=C(C)C1=O [Example 80, N-[5-(5,6-Dimethoxy-3-methyl-1,4-benzoquinon-2-yl)methyl-2-methoxybenzoyl]piperidine]
84 µM | COC1=C(OC)C(=O)C(Cc2ccc(OC)c(C(=O)Nc3ccc(OC)cc3)c2)=C(C)C1=O [Example 82, N-[5-(5,6-Dimethoxy-3-methyl-1,4-benzoquinon-2-yl)methyl-2-methoxybenzoyl]-4-methoxyaniline]
63 µM | COC1=C(OC)C(=O)C(Cc2ccc(OC(C)C)c(C(=O)N3CCOCC3)c2)=C(C)C1=O [Example 84, N-[5-(5,6-Dimethoxy-3-methyl-1,4-benzoquinon-2-yl)methyl-2-isopropoxybenzoyl]morpholine]
65 µM | COC1=C(OC)C(=O)C(Cc2ccc(OC(C)C)c(C(=O)Nc3ccc(OC)cc3)c2)=C(C)C1=O [Example 85, N-[5-(5,6-Dimethoxy-3-methyl-1,4-benzoquinon-2-yl)methyl-2-isopropoxybenzoyl]-4-methoxyaniline]
27 µM | COC1=C(OC)C(=O)C(Cc2ccc(Oc3ccccc3)c(C(=O)N3CCCCC3)c2)=C(C)C1=O [Example 86, N-[5-(5,6-Dimethoxy-3-methyl-1,4-benzoquinon-2-yl)methyl-2-phenoxybenzoyl]piperidine]
19 µM | COC1=C(OC)C(=O)C(Cc2ccc(Oc3ccccc3)c(C(=O)N3CCOCC3)c2)=C(C)C1=O [Example 87, N-[5-(5,6-Dimethoxy-3-methyl-1,4-benzoquinon-2-yl)methyl-2-phenoxybenzoyl]morpholine]
45 µM | COC1=C(OC)C(=O)C(Cc2ccc(Oc3cccc(OC)c3)c(C(=O)N3CCCCC3)c2)=C(C)C1=O [Example 89, N-[5-(5,6-Dimethoxy-3-methyl-1,4-benzoquinon-2-yl)methyl-2-(3-methoxyphenoxy)benzoyl]piperidine]
45 µM | COC1=C(OC)C(=O)C(Cc2ccc(OCc3cccnc3)c(C(=O)Nc3ccc(OC)cc3)c2)=C(C)C1=O [Example 94, N-[5-(5,6-Dimethoxy-3-methyl-1,4-benzoquinon-2-yl)methyl-2-(3-pyridylmethyloxy)benzoyl]-4-methoxyaniline]
35 µM | COC1=C(OC)C(=O)C(Cc2ccc(OCc3ccncc3)c(C(=O)N3CCCCC3)c2)=C(C)C1=O [Example 95, N-[5-(5,6-Dimethoxy-3-methyl-1,4-benzoquinon-2-yl)methyl-2-(4-pyridylmethyloxy)benzoyl]piperidine]
48 µM | COC1=C(OC)C(=O)C(Cc2ccc(O)c(C(=O)Nc3cc(OC)c(OC)c(OC)c3)c2)=C(C)C1=O [Example 114, N-[5-(5,6-Dimethoxy-3-methyl-1,4-benzoquinon-2-yl)methyl-2-hydroxybenzoyl]-3,4,5-trimethoxyaniline]
36 µM | COC1=C(OC)C(=O)C(Cc2ccc(O)c(C(=O)Nc3ccc(OC)c(OC)c3)c2)=C(C)C1=O [Example 115, N-[5-(5,6-Dimethoxy-3-methyl-1,4-benzoquinon-2-yl)methyl-2-hydroxybenzoyl]-3,4-dimethoxyaniline]
17 µM | COC1=C(OC)C(=O)C(Cc2ccc(O)c(C(=O)Nc3ccc(C(C)=O)cc3)c2)=C(C)C1=O [Example 116, N-[5-(5,6-Dimethoxy-3-methyl-1,4-benzoquinon-2-yl)methyl-2-hydroxybenzoyl]-4-acetylaniline]
